Test results reported in PMC4585929, “Cargo Delivery into the Brain by in vivo identified Transport Peptides” (Scientific Reports, 2015).
“Also recorded” adds a separate entry of the source.

Legend:
[1] = CSF sampling model: phage recovered from CSF of cisterna magna cannulated conscious rats after i.v. injection (plaque counting); format: in vivo, rat
Excerpt: (§1) The cisterna magna (CM) was cannulated using modification of methods previously described. Anesthetized Wistar rats (200–350 g) were mounted onto a stereotaxic device and a median incision was made on the top of the shaved and aseptically prepared skin of head to expose the skull. Two holes were drilled at the parietal region and mounting screws were secured in the holes. An additional hole was drilled at the external occipital crest and used to stereotactically guide the stainless steel cannula into the CM. Dental cement was applied around the cannula and the screws to hold it in place. After light curing and solidification of the cement, the skin wound was sutured with a 4/0 supramid yarn. Correct placement of the cannula is confirmed by spontaneous flow of cerebrospinal fluid (CSF). The rats were removed from the stereotaxic apparatus, received appropriate post-operative care and analgesic treatment and allowed to recover for at least one week until no sign of blood in the CSF was observed. Wistar rats (Crl:WI/Han) were obtained from Charles River (France). All rats were kept under specific pathogen-free conditions. All animal experiments were approved by the Swiss Veterinary Office Basel-Stadt and were carried out in accordance with the animal permission #2474 (Assessment of active brain transport by measuring the level of therapeutic candidates in the rat CSF and brain).
The CM cannulated conscious rats were gently held in the hand. The mandrain was pulled out of the cannula and 10ul of the spontaneous flowing CSF was collected. Only clear CSF samples with no sign of blood contamination or discoloration were included in this study since patency of the cannula was eventually compromised. In parallel ∼10–20 μL blood from a small incision of the tip of the tail was collected in heparin (Sigma-Aldrich) containing tubes. CSF and blood was collected at different time points after intravenous injection of the T7 bacteriophages. Prior to collecting every CSF sample ∼5–10 μL of fluid was discarded, which represents the catheter dead volume.
The amplified phages underwent 2–3 rounds of endotoxin removal using endotoxin removal beads (Miltenyi Biotec) before intravenous (i.v.) injection (500 ul/animal). 2 × 10^12 phages were injected in the first, 2 × 10^10 phages were injected in the second and 2 × 10^9 phages were injected per animal in the third and fourth round of selection. The phage contents in the CSF and blood samples harvested at the indicated time-points were determined by a plaque counting assay according to the manufacturer’s instructions (T7Select System Manual). Phage selection was carried out by i.v. tail vein injection of the purified library or by re-injection of the CSF recovered phages of the previous selection round, and 10 min, 30 min, 60 min, 90 min, 120 min, 180 min respectively 240 min later CSF and blood samples were collected. A total of four rounds of in vivo panning were performed in which two selection branches were kept and analyzed separately during the first three selection rounds. All CSF recovered phage inserts of the first two selection rounds were subjected to 454/Roche pyrosequencing whereas all CSF recovered clones of the last two selection rounds were manually sequenced. All blood harvested phages of the first selection round were also 454/Roche pyrosequenced. For the injection of the phage clones the selected phages were amplified in E. coli (BL5615) on 500 cm^2 plates at 37 °C for 4 hours. The individually picked and manually sequenced clones were amplified in TB medium. After phage extraction, purification and endotoxin removal steps (described above) 2 × 10^10 phages/animal in 300 μl were i.v. injected into one tail vein.
Supplementary Figure 3 – Pharmacokinetic profiles of wt T7 phage in the CSF and blood
compartments. Determination of the clearance of wt phage from the blood and their occurrence in
the CSF compartment over time. […]

[2] = Blood pharmacokinetics of i.v. injected T7 phage in cisterna magna cannulated rats (plaque counting); format: in vivo, rat
Excerpt: as §1
The CM cannulated conscious rats were gently held in the hand. The mandrain was pulled out of the cannula and 10ul of the spontaneous flowing CSF was collected. […]
The amplified phages underwent 2–3 rounds of endotoxin removal using endotoxin removal beads (Miltenyi Biotec) before intravenous (i.v.) injection (500 ul/animal). […] The phage contents in the CSF and blood samples harvested at the indicated time-points were determined by a plaque counting assay according to the manufacturer’s instructions (T7Select System Manual). […] A total of four rounds of in vivo panning were performed in which two selection branches were kept and analyzed separately during the first three selection rounds. […]

brain capillaries = assay: Immunohistochemistry of phage particles in rat brain 1 hour after i.v. injection; format: in vivo; conditions: 2 × 10^10 phage/animal, FITC anti-T7 antibody
Method: Selected phage clones and insertless phage were i.v. injected via tail vein (2 × 10^10 phage/animal in 300 μl PBS). 10 minutes before perfusion and subsequent fixation 100 ul DyLight594 labeled lectin (Vector Laboratories Inc., DL-1177) was i.v. injected into the same animals. 60 minutes after phage administration rats were perfused through the heart with 50 ml PBS followed by 50 ml 4% PFA/PBS. Brain samples were additionally fixed by 4% PFA/PBS overnight and immersed in 30% sucrose at 4 °C overnight. Samples were frozen quickly in O.C.T. compound. Frozen samples were subject to immunohistochemistry, performed on 30 um freezing sections blocked with 1% BSA for 2 hours at room temperature and incubated with a polyclonal FITC labeled antibody against the T7 phage (Novus NB 600-376A) overnight at 4 °C. Finally, the sections were then washed 3 times with PBS and observed with a laser confocal microscope (Leica TCS SP5).

[3] = wt T7 phage, 1x10^10 phage i.v., 4 cannulated rats, plaque counting
[4] = wt phage i.v., average over entire sampling period (0–250 minutes)
[5] = 2 × 10^10 phages/animal i.v., CM cannulated rats, result in words

Row | Sequence | half-life in CSF [1, 3] [min] | CSF phage as percentage of the blood T7 phage titer [1, 4] | CSF phage as percentage of the initially injected phage [1, 4] | CSF phage as percentage of the blood T7 phage titer ([1]; wt phage i.v., average over entire sampling period (0–250 minutes), listed as wt T7 phages) [%] | injected dose of wt phage detected in the blood 10 min post i.v. injection ([2]; rat, tail vein i.v., calculated from injected titer and rat blood volume) | half-life in blood (slower first-order clearance after initial rapid drop) [2, 3] [min] | phage staining in the brain capillaries (IHC) (brain capillaries) | CSF concentration course over the sampling time [1, 5] | CSF titer change during the first 10 minutes [1, 5] | long term CSF profile over 48 hour period ([1]; 2 × 10^10 phages/animal i.v., at least three CM cannulated rats, result in words) | CSF titer relative to empty control phage (#1779) ([1]; 2 × 10^10 phages/animal tail vein i.v., at least 3 CM cannulated rats each) | stability in the blood / plasma half-life compared to other hits [2, 5]
1 | PAGISRELVDKL [wt phage, wild-type T7 phage with backbone 12-mer insert …, reference compound] | 25.7 | about 1 × 10^−3% | ~4 × 10^−8% | 0.001 | about 1% | 27.7 | – | – | – | – | – | –
2 | RLSSVDSDLSGC [#2077, T7 phage clone displaying …; also synthesized as N-terminally biotinylated transport peptide] | – | – | – | – | – | – | strong staining in the brain capillaries | stabilized at a high level | increased during the first 10 minutes | rapid increase in CSF and a sustainable level | about 1000 fold | increased stability in the blood; also recorded: prolonged plasma half-life compared to other hits
